# Measured values published in BindingDB's records for doi:10.1016/j.bmcl.2012.03.007 (Bristol-Myers Squibb, 2012).
# Columns and labels:
# [1] = Antagonist activity at CCR2 in human PBMC assessed as inhibition of MCP1-induced chemotaxis
# [2] = Antagonist activity at CCR2 in mouse monocytes assessed as inhibition of MCP1-induced chemotaxis
IC50 [1] [nM],IC50 [2] [nM],Structure (SMILES)
20,–,CCC[C@H](O)[C@H](CNCc1ccc(C)cc1C)NC(=O)CNC(=O)c1cc(N)cc(C(F)(F)F)c1
32,–,CCC[C@H](O)[C@H](CNCc1ccc(C)cc1C)NC(=O)CNC(=O)c1cc(C(F)(F)F)ccc1N
17,–,CCC[C@H](O)[C@H](CNCc1ccc(C)cc1C)NC(=O)CNC(=O)c1cc(C(F)(F)F)ccc1NC(=O)OC(C)(C)C
5,–,CCC[C@H](O)[C@H](CNCc1ccc(C)cc1C)NC(=O)CNC(=O)c1cc(C(F)(F)F)ccc1NC(=O)NC
24,4,CCC[C@H](O)[C@H](CNCc1ccc(C)cc1C)NC(=O)CNC(=O)c1cc(C(F)(F)F)ccc1NC(=O)NCC
4.3,–,CCC[C@H](O)[C@H](CNCc1ccc(C)cc1C)NC(=O)CNC(=O)c1cc(C(F)(F)F)ccc1NC(=O)N1CCC1
5.2,–,CCC[C@H](O)[C@H](CNCc1ccc(C)cc1C)NC(=O)CNC(=O)c1cc(C(F)(F)F)ccc1NC(=O)N1CCCC1
13,–,CCC[C@H](O)[C@H](CNCc1ccc(C)cc1C)NC(=O)CNC(=O)c1cc(C(F)(F)F)ccc1NC(=O)N1CCOCC1
10,–,CCC[C@H](O)[C@H](CNCc1ccc(C)cc1C)NC(=O)CNC(=O)c1cc(C(F)(F)F)ccc1NC(=O)N1CCNCC1
9,–,CCC[C@H](O)[C@H](CNCc1ccc(C)cc1C)NC(=O)CNC(=O)c1cc(C(F)(F)F)ccc1NC(C)C
33,–,CCC[C@H](O)[C@H](CNCc1ccc(C)cc1C)NC(=O)CNC(=O)c1cc(C(F)(F)F)ccc1NC(C)(C)C
7.2,–,CCC[C@H](O)[C@H](CNCc1ccc(C)cc1C)NC(=O)CNC(=O)c1cc(C(F)(F)F)ccc1NCc1ccccc1
74,–,CCC[C@H](O)[C@H](CNCc1ccc(C)cc1C)NC(=O)CNc1n[nH]c2ccc(C(F)(F)F)cc12
81,–,CCC[C@H](O)[C@H](CNCc1ccc(C)cc1C)NC(=O)CC(=O)Nc1cccc(C(F)(F)F)c1
14,–,CCC[C@H](O)[C@H](CNCc1ccc(C)cc1C)NC(=O)CC(=O)Nc1cc(N)cc(C(F)(F)F)c1
23,–,CCC[C@H](O)[C@H](CNCc1ccc(C)cc1C)NC(=O)CC(=O)Nc1cc(NC)cc(C(F)(F)F)c1
12,–,CCC[C@H](O)[C@H](CNCc1ccc(C)cc1C)NC(=O)CC(=O)Nc1cc(NCC)cc(C(F)(F)F)c1
